US7265152B2 (ViroPharma Incorporated, priority 2002, dated 2007)
pEC50, pIC50: −log10 of the molar value. Read-outs that look alike come from different tables or passages of the source.

Assays:
[1] = system: HCV replicon (BB7 sequence) in Huh-7-Clone A cells; experiment: HCV replicon assay: ELISA of NS5A protein in replicon-containing cells (Inhibition of Viral RNA Replication); type: cell-based; settings: for pEC50: read-out: Replicon
Procedure, shortened: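 Huh-7-Clone A cells carrying subgenomic BB7 HCV replicon (G418-selectable) incubated 72 h with compound. NS5A protein quantified by cell ELISA: glutaraldehyde fixation, anti-NS5A monoclonal plus HRP secondary, TMB read at OD 650 nm. EC50 derived from 8-point serial dilution dose curve.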

[2] = target: T1, HCV NS5B (Hepatitis C virus genotype 1b, UniProt Q9WMX2); experiment: Inhibition of viral RNA-dependent RNA polymerase (RdRp), in vitro biochemical assay; design: species or system HCV genotype 1b virus (BB7); settings: read-out: HCV pol-BB7 IC50
T1 construct: fusion protein, of which the carboxyl terminal 21 amino acids were removed to enhance its solubility; His tag (GSHHHHHH); made in house; host or cells: E. coli
Procedure, shortened: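 Purified recombinant NS5B from a genotype 1b consensus (BB7), His-tagged, E. coli-expressed, with the C-terminal 21 residues deleted. Inhibition of RdRp activity in vitro was measured, and IC50 is the concentration giving 50% inhibition.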

[3] = Hepatitis C virus, HCV replicon assay, ranges of EC50
[4] = HCV NS5B RdRp, BB7, activity class
[5] = HCV NS5B RdRp, BB7, class symbols A-D
[6] = Hepatitis C virus, ranges of EC50 in HCV replicon assay
[7] = Hepatitis C virus, HCV replicon, range of EC50
[8] = HCV NS5B RdRp, BB7, reported as range class
[9] = Hepatitis C virus, HCV replicon assay, ranges of 50% effective concentration (EC50)
[10] = HCV NS5B polymerase, BB7 (genotype 1b), values given as range classes A-D
[11] = Hepatitis C virus, Huh-7-Clone A, NS5A ELISA, 72-hour incubation, ranges of EC50
[12] = purified His-tagged NS5B (BB7), carboxyl terminal 21 amino acids removed

For `CNC(=O)c1c(-c2ccc(F)cc2)oc2cc(N(C)S(C)(=O)=O)c(OCc3nnnn3C)cc12` [Example 371, 2-(4-Fluoro-phenyl)-6-(methanesulfonyl-methyl-amino)-5-(1-methyl-1H-tetrazol-5-ylmethoxy)-benzofuran-3-carboxylic acid methylamide], the pEC50 [1, 3] was over 6.00 and the pIC50 [2, 4] was at least 6.30.

`CNC(=O)c1c(-c2ccc(F)cc2)oc2cc(N(C)S(C)(=O)=O)c(OCc3ccncc3)cc12` [Example 328, 2-(4-Fluoro-phenyl)-6-(methanesulfonyl-methyl-amino)-5-(pyridin-4-ylmethoxy)-benzofuran-3-carboxylic acid methylamide] gave a pEC50 [1, 3] of over 6.00 and a pIC50 [2, 5] of at least 6.30.

With `CNC(=O)c1c(-c2ccc(F)cc2)oc2cc(-c3cccnc3)c(OC(C)C)cc12` [Example 153, 2-(4-Fluoro-phenyl)-5-isopropoxy-6-pyridin-3-yl-benzofuran-3-carboxylic acid methylamide] the pEC50 [1, 6] was over 5.00 and the pIC50 ([2]; HCV NS5B RdRp, BB7 genotype 1b) was at least 6.30.

In the case of `CCc1cc2c(C(=O)NC)c(-c3ccc(F)cc3)oc2cc1C(C)=O` [Example 340, 6-Acetyl-5-ethyl-2-(4-fluoro-phenyl)-benzofuran-3-carboxylic acid methylamide], the pEC50 [1, 3] was over 6.00 and the pIC50 [2, 4] was at least 6.30.

`CNC(=O)c1c(-c2ccc(F)cc2)oc2cc(-c3nccs3)c(OC(C)C)cc12` [Example 219, 2-(4-Fluoro-phenyl)-5-isopropoxy-6-thiazol-2-yl-benzofuran-3-carboxylic acid methylamide] gave a pEC50 [1, 7] of over 5.00 and a pIC50 [2, 8] of at least 6.30.

With `CNC(=O)c1c(-c2ccc(F)cc2)oc2cc(N(COC)S(C)(=O)=O)c(OCc3ccc(C#N)cc3)cc12` [Example 446, 5-(4-Cyano-benzyloxy)-2-(4-fluoro-phenyl)-6-(methanesulfonyl-methoxymethyl-amino)-benzofuran-3-carboxylic acid methylamide] the pEC50 [1, 3] was over 6.00 and the pIC50 ([2]; HCV NS5B RdRp, BB7 (genotype 1b), reported as class symbols) was at least 6.30.

With `CNC(=O)c1c(-c2ccc(F)cc2)oc2cc(N(CC(F)(F)F)S(C)(=O)=O)c(OC)cc12` [Example 308, 2-(4-Fluoro-phenyl)-6-[methanesulfonyl-(2,2,2-trifluoro-ethyl)-amino]-5-methoxy-benzofuran-3-carboxylic acid methylamide] the pEC50 [1, 3] was over 6.00 and the pIC50 [2, 5] was at least 6.30.

Molecule `CNC(=O)c1c(-c2ccc(F)cc2)oc2cc(NS(C)(=O)=O)c(O)cc12` [Example 174, 2-(4-Fluoro-phenyl)-5-hydroxy-6-methanesulfonylamino-benzofuran-3-carboxylic acid methylamide] has a pEC50 [1, 7] of over 4.52 and a pIC50 [2, 8] of 5.30 to 6.30.

In the case of `CNC(=O)c1c(-c2ccc(F)cc2)oc2cc(NCC(O)CO)c(OC(C)C)cc12` (stereo not shown) [Example 113, 6-(2,3-Dihydroxy-propylamino)-2-(4-fluoro-phenyl)-5-isopropoxy-benzofuran-3-carboxylic acid methylamide], the pEC50 [1, 6] was over 5.00 and the pIC50 ([2]; HCV NS5B RdRp, BB7 genotype 1b) was 5.30 to 6.30.

`CNC(=O)c1c(-c2ccc(F)cc2)oc2cc(N(C)S(C)(=O)=O)c(OCC(=O)O)cc12` [Example 386, [2-(4-Fluoro-phenyl)-6-(methanesulfonyl-methyl-amino)-3-methylcarbamoyl-benzofuran-5-yloxy]-acetic acid] was tested, and the pEC50 [1, 9] was over 4.52 and the pIC50 [2, 10] was at least 6.30.

Molecule `CNC(=O)c1c(-c2ccc(F)cc2)oc2cc(-c3cccc(S(C)(=O)=O)c3)c(OC(C)C)cc12` [Example 178, 2-(4-Fluoro-phenyl)-5-isopropoxy-6-(3-methanesulfonyl-phenyl)-benzofuran-3-carboxylic acid methylamide] has a pEC50 [1, 7] of over 5.00 and a pIC50 [2, 8] of at least 6.30.

For `CNC(=O)c1c(-c2ccc(F)cc2)oc2cc(N(Cc3c(C)noc3C)S(C)(=O)=O)c(OC)cc12` [Example 290, 6-[(3,5-Dimethyl-isoxazol-4-ylmethyl)-methanesulfonyl-amino]-2-(4-fluoro-phenyl)-5-methoxy-benzofuran-3-carboxylic acid methylamide], the pEC50 [1, 3] was over 5.00 and the pIC50 [2, 5] was at least 6.30.

For `CNC(=O)c1c(-c2ccc(F)cc2)oc2cc(Br)c(OC)cc12` [Example 13, 6-Bromo-2-(4-fluoro-phenyl)-5-methoxy-benzofuran-3-carboxylic acid methylamide], the pEC50 [1, 11] was over 6.00 and the pIC50 [2, 12] was at least 6.30.

For `CCOc1cc2c(C(=O)NC)c(-c3ccc(F)cc3)oc2cc1N(CC)S(C)(=O)=O` [Example 32, 5-Ethoxy-6-(ethyl-methanesulfonyl-amino)-2-(4-fluoro-phenyl)-benzofuran-3-carboxylic acid methylamide], the pEC50 [1, 11] was over 6.00 and the pIC50 [2, 12] was at least 6.30.

Work on `CNC(=O)c1c(-c2ccc(F)cc2)oc2cc(N3CCC(F)(F)CC3)c(OC(C)C)cc12` [Example 170, 6-(4,4-Difluoro-piperidin-1-yl)-2-(4-fluoro-phenyl)-5-isopropoxy-benzofuran-3-carboxylic acid methylamide] yielded a pEC50 [1, 6] of over 6.00 and a pIC50 ([2]; HCV NS5B RdRp, BB7 genotype 1b) of 4.52 to 5.30.

Work on `CNC(=O)c1c(-c2ccc(F)cc2)oc2cc(-c3noc(C(F)(F)F)n3)c(OC(C)C)cc12` [Example 184, 2-(4-Fluoro-phenyl)-5-isopropoxy-6-(5-trifluoromethyl-[1,2,4]oxadiazol-3-yl)-benzofuran-3-carboxylic acid methylamide] yielded a pEC50 [1, 7] of over 4.52 and a pIC50 [2, 8] of 5.30 to 6.30.

For `CNC(=O)c1c(-c2ccc(F)cc2)oc2cc(N3CCOCC3)c(OCc3ccc4c(c3)C(=O)OC(C)(C)O4)cc12` [Example 293], the EC50 ([1]; Hepatitis C virus, read-out: Replicon (μM)) was under 10 µM and the pIC50 [2, 5] was 5.30 to 6.30.

With `CCNc1cc2oc(-c3ccc(F)cc3)c(C(=O)NC)c2cc1OCCCBr` [Example 365, 5-(3-Bromo-propoxy)-6-ethylamino-2-(4-fluoro-phenyl)-benzofuran-3-carboxylic acid methylamide] the pEC50 [1, 3] was over 6.00 and the pIC50 [2, 4] was at least 6.30.

Work on `CNC(=O)c1c(-c2ccc(F)cc2)oc2cc(N3CCOCC3)c(OCc3ccc(F)cc3)cc12` [Example 167, 5-(4-Fluoro-benzyloxy)-2-(4-fluoro-phenyl)-6-morpholin-4-yl-benzofuran-3-carboxylic acid methylamide] yielded a pEC50 [1, 6] of over 6.00 and a pIC50 ([2]; HCV NS5B RdRp, BB7 genotype 1b) of 5.30 to 6.30.

`CNC(=O)c1c(-c2ccc(F)cc2)oc2cc(N3CCOCC3)c(OCC3CC3)cc12` [Example 125, 5-Cyclopropylmethoxy-2-(4-fluoro-phenyl)-6-morpholin-4-yl-benzofuran-3-carboxylic acid methylamide] was tested, and the pEC50 [1, 6] was over 6.00 and the pIC50 ([2]; HCV NS5B RdRp, BB7 genotype 1b) was at least 6.30.

“2-(4-Fluoro-phenyl)-5-hydroxy-6-morpholin-4-yl-benzofuran-3-carboxylic acid methylamide [Example 124]” was tested, and the pEC50 ([1]; ranges of EC50 in HCV replicon assay) was over 5.00 and the pIC50 ([2]; HCV NS5B RdRp, BB7 genotype 1b) was 5.30 to 6.30.

`CCc1cc2c(C(=O)NC)c(-c3ccc(F)cc3)oc2cc1NS(C)(=O)=O` [Example 44, 5-Ethyl-2-(4-fluoro-phenyl)-6-methanesulfonylamino-benzofuran-3-carboxylic acid methylamide] gave a pEC50 [1, 11] of over 5.00 and a pIC50 [2, 12] of at least 6.30.

`CNC(=O)c1c(-c2ccc(F)cc2)oc2cc(-c3c(C)noc3C)c(OCc3cscn3)cc12` [Example 401, 6-(3,5-Dimethyl-isoxazol-4-yl)-2-(4-fluoro-phenyl)-5-(thiazol-4-ylmethoxy)-benzofuran-3-carboxylic acid methylamide] gave a pEC50 [1, 9] of over 6.00 and a pIC50 [2, 10] of at least 6.30.

Molecule `CNC(=O)c1c(-c2ccc(F)cc2)oc2cc(S(N)(=O)=O)c(OC(C)C)cc12` [Example 149, 2-(4-Fluoro-phenyl)-5-isopropoxy-6-sulfamoyl-benzofuran-3-carboxylic acid methylamide] has a pEC50 [1, 6] of under 4.52 and a pIC50 ([2]; HCV NS5B RdRp, BB7 genotype 1b) of 4.52 to 5.30.

In the case of `CNC(=O)c1c(-c2ccc(F)cc2)oc2cc(N(C)S(C)(=O)=O)c(OCc3ccccc3OC(F)F)cc12` [Example 347, 5-(2-Difluoromethoxy-benzyloxy)-2-(4-fluoro-phenyl)-6-(methanesulfonyl-methyl-amino)-benzofuran-3-carboxylic acid methylamide], the pEC50 [1, 3] was over 6.00 and the pIC50 [2, 4] was at least 6.30.

With `CNC(=O)c1c(-c2ccc(F)cc2)oc2cc(N(C)S(C)(=O)=O)c(OCC(=O)Nc3nc(C)c(C)s3)cc12` [Example 417, 5-[(4,5-Dimethyl-thiazol-2-ylcarbamoyl)-methoxy]-2-(4-fluoro-phenyl)-6-(methanesulfonyl-methyl-amino)-benzofuran-3-carboxylic acid methylamide] the pEC50 [1, 9] was over 6.00 and the pIC50 [2, 10] was at least 6.30.

In the case of `CCCOc1ccc2oc(-c3ccccc3)c(C(=O)NC)c2c1` [Example 61, 2-Phenyl-5-propoxy-benzofuran-3-carboxylic acid methylamide], the pEC50 [1, 11] was over 4.52 and the pIC50 [2, 12] was 5.30 to 6.30.

`CNC(=O)c1c(-c2ccc(Cl)c(F)c2)oc2ccc(OC)cc12` [Example 77, 2-(4-Chloro-3-fluoro-phenyl)-5-methoxy-benzofuran-3-carboxylic acid methylamide] gave a pEC50 [1, 11] of over 5.00 and a pIC50 [2, 12] of at least 6.30.

Work on `CNC(=O)c1c(-c2ccc(F)cc2)oc2cc(-c3c(C)noc3C)c(OCCCO)cc12` [Example 51, 6-(3,5-Dimethyl-isoxazol-4-yl)-2-(4-fluoro-phenyl)-5-(3-hydroxy-propoxy)-benzofuran-3-carboxylic acid methylamide] yielded a pEC50 [1, 11] of over 6.00 and a pIC50 [2, 12] of at least 6.30.
